Assay: Plasma pharmacokinetics of COMPOUND I in Phase I and II studies
Type: in vivo, patients

- inter-subject coefficient of variation (CV %) for AUC (500 mg/day on a 5 days on/2 days off dosing schedule): around 50%
- plasma pharmacokinetic (all doses tested from 25 to 600 mg, continuous daily dosing regimen): time dependent
- exposure of COMPOUND I with dose (doses of 400 mg/day and above, continuous daily dosing regimen): prolonged over-proportional exposure
SMILES: CN1CCN(c2ccc3nc(-c4c(N)c5c(F)cccc5[nH]c4=O)[nH]c3c2)CC1 [COMPOUND I, 4-amino-5-fluoro-3-[6-(4-methylpiperazin-1-yl)-1H-benzimidazol-2-yl]-1H-quinolin-2-one]
